Laboratory results published in US20090029992A1, “SUBSTITUTED PYRAZOLE COMPOUNDS” (priority 2007, published 2009).
pIC50: −log10 of the molar value.

Experiments:
recombinant Aurora A = biological target: T1, recombinant Aurora A (Homo sapiens, UniProt O14965); assay: Aurora A (Aurora 2) inhibition assay, Z'-Lyte kinase assay; format: biochemical; settings: ATP 10 μM, 1 h
T1 construct: purchased Upstate, Lake Placid, N.Y
T1 sequence (O14965 1-403): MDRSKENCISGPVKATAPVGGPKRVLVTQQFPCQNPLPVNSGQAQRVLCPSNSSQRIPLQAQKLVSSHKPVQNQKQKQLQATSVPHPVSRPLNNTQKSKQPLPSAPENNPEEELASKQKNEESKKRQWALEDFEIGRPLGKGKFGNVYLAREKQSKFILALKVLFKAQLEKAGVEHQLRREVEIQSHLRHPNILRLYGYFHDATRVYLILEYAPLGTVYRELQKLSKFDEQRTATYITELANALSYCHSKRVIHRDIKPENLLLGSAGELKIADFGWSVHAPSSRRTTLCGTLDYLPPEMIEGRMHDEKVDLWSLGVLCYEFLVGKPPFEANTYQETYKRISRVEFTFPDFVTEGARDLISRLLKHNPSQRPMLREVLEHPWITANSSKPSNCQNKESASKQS
Procedure: Compounds were tested for their potency against recombinant Aurora A (Upstate, Lake Placid, N.Y.) using the PanVera Z′-Lyte kinase assay kit—Ser/Thr 1 peptide (Invitrogen, Carlsbad, Calif.). Assays were carried out in kinase assay buffer (50 mM HEPES, pH 7.5, 10 mM MgCl2, 5 mM EGTA, 0.05% Brij-35, 2 mM DTT). Test compounds were initially dissolved in DMSO at 100× the highest tested concentration, then serially diluted to 4× test concentrations in kinase assay buffer. Next, Aurora A (final concentration 200-500 ng/mL), Z′-Lyte Ser/Thr 1 peptide (final concentration 2 μM) and ATP (final concentration 10 μM) were added according to the manufacturer's instructions. Assays were carried out in half-area 96-well white polystyrene assay plates (Corning, Corning, N.Y.) in a final volume of 20 μl. The reaction was allowed to proceed for 1 h at room temperature in the dark, at which point the development reagent and stop reagent were added according to the manufacturer's instructions. Coumarin (Ex. 400 nm, Em. 465 nm) and fluorescein (Ex. 400 nm, Em. 565 nm) fluorescence values were measured on a SpectraFluor Plus plate reader (Tecan, Durham, N.C.). The emission ratio (coumarin/fluorescein) was determined and used to calculate the percent phosphorylation for each well. Wells containing substrate but no kinase and wells containing a phosphopeptide control were used to set 0% and 100% phosphorylation values, respectively. Typically 20-40% of the substrate was phosphorylated in wells without inhibitor. Dose-response curves of relative Aurora A activity vs. inhibitor concentration were plotted with Grafit (Erithacus Software, Horley, Surrey, UK).

HCT116 cells = assay: Whole cell cytotoxicity assay, Sulforhodamine B; format: cell-based; settings: Homo sapiens, HCT-116, HCT116, 96 hours incubation, SRB; for GI50: read-out: GI50 HCT116 cell growth; for pIC50: read-out: IC50 values in this assay (HCT116 cell growth)
Procedure, shortened: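 HCT116 cells (500/well) in DMEM/10% FBS/2 mM glutamine were preincubated 24 h, then exposed to compound for 96 h at 37 °C, 5% CO2, in duplicate. Cells were fixed with TCA and stained with sulforhodamine B (A570). GI50, TGI and LC50 were derived relative to a time-zero plate and an untreated control.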

[1] = group with IC50 greater than 100 nM

Structure (SMILES) | pIC50 (recombinant Aurora A) | GI50 (HCT116 cells) | pIC50 (HCT116 cells) | pIC50 (recombinant Aurora A; [1])
Cc1cc(Nc2cc(N3CCN(C)CC3)nc(-c3ccc(F)c(F)c3)n2)n[nH]1 [Example 168, 2-(3,4-difluorophenyl)-N-(5-methyl-1H-pyrazol-3-yl)-6-(4-methylpiperazin-1-yl)pyrimidin-4-amine] | ≥ 7.00 | ≤ 1000 nM |  | 
Cc1cc(Nc2cc(N3CCN(C)CC3)nc(-c3cc4cc(NS(=O)(=O)C5CC5)ccc4o3)n2)n[nH]1 [Example 155, N-(2-(4-(5-methyl-1H-pyrazol-3-ylamino)-6-(4-methylpiperazin-1-yl)pyrimidin-2-yl)benzofuran-5-yl)cyclopropanesulfonamide] | ≥ 7.00 | ≤ 1000 nM |  | 
Cc1cc(Nc2cc(N3CCN(C)CC3)nc(-c3ccc(F)cc3)n2)n[nH]1 [Compound 32, 2-(4-fluorophenyl)-N-(5-methyl-1H-pyrazol-3-yl)-6-(4-methylpiperazin-1-yl)pyrimidin-4-amine] | ≥ 7.00 | ≤ 1000 nM |  | 
Cc1cc(Nc2cc(NC3CCOCC3)nc(-c3cc(F)ccc3F)n2)n[nH]1 [Example 185, 2-(2,5-difluorophenyl)-N^4-(5-methyl-1H-pyrazol-3-yl)-N^6-(tetrahydro-2H-pyran-4-yl)pyrimidine-4,6-diamine] | ≥ 7.00 |  | 5.00 to 6.00 | 
COCCN(C)c1cc(Nc2cc(C)[nH]n2)nc(-c2cccc(Cl)c2)n1 [Compound 62, 2-(3-chlorophenyl)-N^4-(2-methoxyethyl)-N^4-methyl-N^6-(5-methyl-1H-pyrazol-3-yl)pyrimidine-4,6-diamine] |  |  | 5.00 to 6.00 | ≥ 6.00
COCCN(C)c1cc(Nc2cc(C)[nH]n2)nc(-c2cccc(N(C)C)c2)n1 [Compound 119, 2-(3-(dimethylamino)phenyl)-N^4-(2-methoxyethyl)-N^4-methyl-N^6-(5-methyl-1H-pyrazol-3-yl)pyrimidine-4,6-diamine] | ≥ 7.00 |  | 5.00 to 6.00 | 
CC(=O)N1CCN(c2cc(Nc3cc(C)[nH]n3)nc(-c3cc4ccccc4n3C)n2)CC1 [Compound 6, 1-(4-(6-(5-methyl-1H-pyrazol-3-ylamino)-2-(1-methyl-1H-indol-2-yl)pyrimidin-4-yl)-piperazin-1-yl)ethanone] | ≥ 7.00 | ≤ 1000 nM |  | 
Cc1cc(Nc2cc(N3CCN(C)CC3)nc(-c3cccc(OCc4ccccc4)c3)n2)n[nH]1 [Example 188, 2-(3-(benzyloxy)phenyl)-N-(5-methyl-1H-pyrazol-3-yl)-6-(4-methylpiperazin-1-yl)pyrimidin-4-amine] | ≥ 7.00 |  | 5.00 to 6.00 | 
Cc1cccc(-c2nc(Nc3cc(C)[nH]n3)cc(N3CCN(C)CC3)n2)c1 [Compound 39, N-(5-methyl-1H-pyrazol-3-yl)-6-(4-methylpiperazin-1-yl)-2-m-tolylpyrimidin-4-amine] | ≥ 7.00 | ≤ 1000 nM |  | 
Cc1cc(Nc2cc(NC3CCOCC3)nc(-c3ccc4c(c3)OCO4)n2)n[nH]1 [Example 132, 2-(benzo[d][1,3]dioxol-5-yl)-N^4-(5-methyl-1H-pyrazol-3-yl)-N^6-(tetrahydro-2H-pyran-4-yl)pyrimidine-4,6-diamine] | ≥ 7.00 |  | 5.00 to 6.00 | 
Cc1cc(Nc2cc(N3CCN(C)CC3)nc(-c3ccc4ccccc4c3)n2)n[nH]1 [Example 135, N-(5-methyl-1H-pyrazol-3-yl)-6-(4-methylpiperazin-1-yl)-2-(naphthalen-2-yl)pyrimidin-4-amine] | ≥ 7.00 | ≤ 1000 nM |  | 
Cc1cc(Nc2cc(N3CCN(C)CC3)nc(-c3ccc(C(C)(C)C)cc3)n2)n[nH]1 [Compound 82, 2-(4-tert-butylphenyl)-N-(5-methyl-1H-pyrazol-3-yl)-6-(4-methylpiperazin-1-yl)pyrimidin-4-amine] | ≥ 7.00 |  | 5.00 to 6.00 | 
Cc1cc(Nc2cc(NC3CCOCC3)nc(-c3ccc(-c4ccccc4)cc3)n2)n[nH]1 [Example 158, 2-(biphenyl-4-yl)-N^4-(5-methyl-1H-pyrazol-3-yl)-N^6-(tetrahydro-2H-pyran-4-yl)pyrimidine-4,6-diamine] |  |  | 5.00 to 6.00 | ≥ 6.00
